The target in assay [1] is T1, hM1 (Homo sapiens, UniProt P11229).
T1 sequence (P11229 1-460): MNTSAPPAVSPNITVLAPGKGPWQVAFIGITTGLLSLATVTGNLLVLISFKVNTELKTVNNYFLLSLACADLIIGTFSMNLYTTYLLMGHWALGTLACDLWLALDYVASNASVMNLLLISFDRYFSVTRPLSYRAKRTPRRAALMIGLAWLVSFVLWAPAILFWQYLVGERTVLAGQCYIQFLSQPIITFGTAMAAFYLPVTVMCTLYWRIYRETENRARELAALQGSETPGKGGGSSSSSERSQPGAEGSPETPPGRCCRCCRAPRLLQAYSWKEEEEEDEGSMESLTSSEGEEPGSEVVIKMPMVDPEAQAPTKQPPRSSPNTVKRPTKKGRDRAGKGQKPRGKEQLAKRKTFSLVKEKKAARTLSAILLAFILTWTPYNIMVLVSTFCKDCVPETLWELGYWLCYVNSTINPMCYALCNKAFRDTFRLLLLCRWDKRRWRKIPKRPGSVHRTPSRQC
Format: cell-based. As to conditions: for change in hM1 antagonist potency relative to a comparator compound: fold change in words; for hM1 antagonist activity in words: SAR discussion of Table 1 analogs.

Assay [2] deals with T1, hM1. Description: [3H]NMS radioligand displacement at hM1 under equilibrium conditions. Format: binding.
The target in a further assay is T2, M1 (Homo sapiens, UniProt P11229).
T2 sequence (P11229 1-460): T1 sequence (P11229 1-460)
Description: Schild analysis, calcium mobilization in M1-expressing CHO cells. The conditions noted are these: for Schild regression slope: antagonism of ACh, mean ± S.E.M. of three experiments in triplicate; for mode of antagonism of M1 response to ACh: calcium mobilization assay. The assay is classed as cell-based.

20 molecules from article PMC3897205 (Bioorganic & medicinal chemistry letters, 2012) can be followed below.

For the molecule `CCN1CCN(C(=O)C(Cc2ccccc2)c2ccccc2)CC1C` (centres unmarked) [Compound 5f], the “change in hM1 antagonist potency relative to a comparator compound” value at hM1 [1] is given as “increase potency roughly sixfold”. On to `O=C(C(Cc1ccccc1)c1ccccc1)N1CCNCC1` (centres unmarked) [Compound 5d], for which the “hM1 antagonist activity in words” value at hM1 [1] is listed as “loss of activity”. Regarding `CN1CCN(C(=O)[C@H](Cc2ccccc2)c2ccccc2)CC1` (single isomer, unassigned) [Compound 6], on hM1 [2], the “displacement of radiolabeled NMS” value is recorded as “completely displace radiolabeled NMS”. Further, at M1, the Schild regression slope is 0.97 ± 0.02 and the “mode of antagonism of M1 response to ACh” value is on record as “competitively antagonizes M1 response to ACh in a concentration-dependent manner”. Also, at hM1 [1], the “hM1 antagonist activity in words” value is listed as “moderate improvement in potency”.

For the molecule `CC(C)N1CCCN(C(=O)C(Cc2ccccc2)c2ccccc2)CC1` (centres unmarked) [Compound 5w], the “hM1 antagonist activity in words” value on hM1 [1] was “retained moderate potency”. In the case of `CCN1CCN(C(=O)C(Cc2ccccc2)c2ccccc2)CC1(C)C` (centres unmarked) [Compound 5g], the “change in hM1 antagonist potency relative to a comparator compound” value on hM1 [1] is “increase potency roughly sixfold”. With `CC(C)N1CCN(C(=O)C(Cc2ccccc2)c2ccccc2)CC1` (centres unmarked) [Compound 5b], at hM1 [1], the “change in hM1 antagonist potency relative to a comparator compound” value is given as “only a minor potency decrease”. `C[N+]1(C)CCN(C(=O)C(Cc2ccccc2)c2ccccc2)CC1` (centres unmarked) [Compound 5h]: the “hM1 antagonist activity in words” value at hM1 [1] was “only modest activity”. Still for that read-out and setting: with `O=C(C(Cc1ccccc1)c1ccccc1)N1CC[C@H]2CCCN2CC1` (some centres unmarked) [Compound 5y] the entry was “retained moderate potency”. As to `CC(C)CN1CCN(C(=O)C(Cc2ccccc2)c2ccccc2)CC1` (centres unmarked) [Compound 5c], the “hM1 antagonist activity in words” value on hM1 [1] is “nearly abolished antagonist activity”. On the same count and under the same terms, with `O=C(C(Cc1ccccc1)c1ccccc1)N1CCN(c2ccncc2)CC1` (centres unmarked) [Compound 5s] the entry was “minimal antagonist activity”. Still for that read-out and setting: the same measure for `CN(C)CCNC(=O)C(Cc1ccccc1)c1ccccc1` (centres unmarked) [Compound 5m]: “large losses in potency”.

For `CN1CCN(C(=O)[C@@](F)(Cc2ccccc2)c2ccccc2)CC1` (single isomer, unassigned) [Compound 8f], the “displacement of radiolabeled NMS” value at hM1 [2] was “completely displace radiolabeled NMS”. Further, on M1, the Schild regression slope worked out at 1.07 ± 0.02 and the “mode of antagonism of M1 response to ACh” value is on record as “competitively antagonizes M1 response to ACh in a concentration-dependent manner”. Also, on hM1 [1] (against hM1-5, calcium mobilization assay), the “selectivity for hM1” value was “modest selectivity for hM1”. On to `O=C(C(Cc1ccccc1)c1ccccc1)N1CCCNCC1` (centres unmarked) [Compound 5z], for which the “hM1 antagonist activity in words” value at hM1 [1] is given as “nearly complete loss of activity”. Consider `CN1CCCN(C(=O)C(Cc2ccccc2)c2ccccc2)CC1` (centres unmarked) [Compound 5u], for which the “change in hM1 antagonist potency relative to a comparator compound” value at hM1 [1] is reported as “only a twofold decrease in potency”.

In the case of `CCN1CCN(C(=O)C(Cc2ccccc2)c2ccccc2)CC1` (centres unmarked) [Compound 5a], the “change in hM1 antagonist potency relative to a comparator compound” value at hM1 [1] is reported as “sixfold drop in potency”. As to `O=C(C(Cc1ccccc1)c1ccccc1)N1CCN(CC(F)(F)F)CC1` (centres unmarked) [Compound 5t], the “hM1 antagonist activity in words” value at hM1 [1] was “complete loss of activity”. On the same count and under the same terms, with `CN(C)CCN(C)C(=O)C(Cc1ccccc1)c1ccccc1` (centres unmarked) [Compound 5n] the entry was “large losses in potency”. Turning to `CCN1CCCN(C(=O)C(Cc2ccccc2)c2ccccc2)CC1` (centres unmarked) [Compound 5v], the “change in hM1 antagonist potency relative to a comparator compound” value on hM1 [1] is reported as “roughly equipotent with 4”. On to `COCCN1CCN(C(=O)C(Cc2ccccc2)c2ccccc2)CC1` (centres unmarked) [Compound 5r], for which the “hM1 antagonist activity in words” value at hM1 [1] is on record as “significant drop in potency”.

In the case of `CN1CCN(C(=O)C(Cc2ccccc2)c2ccccc2)CC1` (centres unmarked) [Compound 4], the “change in hM1 antagonist potency relative to a comparator compound” value at hM1 [1] is on record as “roughly fourfold improvement in antagonist potency”.
